{"source": "patent US7960569B2", "about": "“Indole antagonists of P2Y1 receptor useful in the treatment of thrombotic conditions” (Bristol-Myers Squibb Company, priority 2006, dated 2011)", "note": "Counter-ions that a name gives are not always drawn.", "data": [{"biological_target": "T1, cloned human P2Y1 receptors (Homo sapiens, UniProt P47900)", "T1 construct": "expressed in transfected cells", "T1 sequence (P47900 whole entry)": "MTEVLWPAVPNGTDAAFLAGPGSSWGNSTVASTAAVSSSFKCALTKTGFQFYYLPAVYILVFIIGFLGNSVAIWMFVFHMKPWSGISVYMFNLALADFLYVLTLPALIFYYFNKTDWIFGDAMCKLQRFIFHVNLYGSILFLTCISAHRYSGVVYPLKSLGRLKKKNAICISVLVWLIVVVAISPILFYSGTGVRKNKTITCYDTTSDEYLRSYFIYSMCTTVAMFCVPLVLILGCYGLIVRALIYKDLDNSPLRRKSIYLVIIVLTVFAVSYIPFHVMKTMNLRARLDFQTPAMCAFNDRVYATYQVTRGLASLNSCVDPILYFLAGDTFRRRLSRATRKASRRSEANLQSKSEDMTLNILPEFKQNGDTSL", "test": "Binding Assay A: membrane binding assay, inhibition of [33P] 2MeS-ADP binding (WGA FlashPlates)", "excerpt": "A membrane binding assay was used to identify inhibitors of [^33P] […] The cDNA clone for human P2Y1 was obtained from Incyte Pharmaceuticals and its sequence confirmed by established techniques (for a compendium of techniques used see Ausubel, F. et al. Current Protocols in Molecular Biology 1995 John Wiley and Sons, NY, N.Y.). The essential coding sequences were subcloned into pcDNA 3.1 (Invitrogen) to produce a P2Y1 expression construct. This construct was then transfected into the human embryonic kidney cell line HEK-293 and stable transfectants selected in Genetcin® (G418 sulfate; Life Technologies). […] Membranes were prepared by growing HEK293 #49 in 150 mm dishes in DMEM/10% FBS in the presence of 1 mg/ml G418 until cells were 80-90% confluent. Plates were then washed with cold (4° C.) D-PBS twice and cells harvested by scraping into 10 mL D-PBS. Cells were pelleted by centrifugation (1,000 g, 10 min, 4° C.) and the resulting pellet resuspended in Lysis Buffer (10 mM Tris (7.4), 5 mM MgCl2 containing Complete® protease inhibitor cocktail (Roche Cat #1873580) as recommended by the manufacturer). The suspension was then homogenized in a Dounce homogenizer (10-15 strokes; B pestle, on ice) and the homogenate spun at 1,000 g, 4° C., 5 min to pellet large debris. The supernatant was centrifuged at 150,000 g, 4° C., for 1 hour and the resulting membrane pellet resuspended in 0.5-1 mL of Buffer B (15 mM HEPES (7.4), 145 mM NaCl, 0.1 mM MgCl2, 5 mM EDTA, 5 mM KCl) and stored at −70° C. until used.\nBinding reactions were performed in WGA FlashPlates (PerkinElmer Life Sciences, Cat # SMP105A) in a volume of 200 μL containing ˜45 fmol of P2Y1 receptor (5 μg of total protein), 0.5 nM [^33P] […] Reactions were allowed to proceed to completion at room temperature for 1 hour and then the aqueous solution aspirated. Plates were sealed and the residual [^33P] bound to the plate determined by scintillation counting.", "units": {"Ki": "nM"}, "values": [{"smiles": "CC(C)c1ccccc1-c1cn(C(=O)Nc2ccc(-c3ccccc3)cc2)c2ccccc12", "note": "[Example 27, N-(biphenyl-4-yl)-3-(2-isopropylphenyl)-1H-indole-1-carboxamide]", "Ki": 144}, {"smiles": "CC(C)c1ccccc1-c1cn(C(=O)Nc2ccc(N(C)C)cc2)c2ccccc12", "note": "[Example 12, N-(4-(dimethylamino)phenyl)-3-(2-isopropylphenyl)-1H-indole-1-carboxamide 2,2,2-trifluoroacetic acid salt]", "Ki": 117}, {"smiles": "CN(C)Cc1ccccc1-c1cn(C(=O)Nc2ccc(OC(F)(F)F)cc2)c2ccccc12", "note": "[Example 33, 3-(2-((dimethylamino)methyl)phenyl)-N-(4-(trifluoromethoxy)phenyl)-1H-indole-1-carboxamide bis(2,2,2-trifluoroacetic acid) salt]", "Ki": 1300}, {"smiles": "CC(C)c1ccccc1-c1cn(C(=O)Nc2ccc(I)cc2)c2ccccc12", "note": "[Example 40, N-(4-iodophenyl)-3-(2-isopropylphenyl)-1H-indole-1-carboxamide]", "Ki": 96}, {"smiles": "CC(C)c1ccccc1-n1cc(C(=O)Nc2ccc(N3CCOCC3)cc2)c2ccccc21", "note": "[Example 53, 1-(2-isopropylphenyl)-N-(4-morpholinophenyl)-1H-indole-3-carboxamide 2,2,2-trifluoroacetic acid salt]", "Ki": 1210}, {"smiles": "CC(C)c1ccccc1-c1cn(C(=O)Nc2ccccc2)c2ccccc12", "note": "[Example 1, 3-(2-isopropylphenyl)-N-phenyl-1H-indole-1-carboxamide]", "Ki": 75}]}]}
